Assay results taken from PubChem BioAssay AID1259407 (Chemical Carcinogenesis Research Information System (CCRIS), 2018).
The source made the active and inactive calls. The rule behind the calls is not given here.

Test system: CCRIS mutagenicity, Ames/micronucleus/aberration tests
Experiment: CCRIS mutagenicity studies

SMILES: COc1ccc(N)cc1
- mutagenic call (Test System: AMES SALMONELLA TYPHIMURIUM, Strain/Indicator: TA1535, Metabolic Activation: RAT, LIVER, S-9, Method: STANDARD PLATE): inactive; negative
- mutagenic call (Test System: AMES SALMONELLA TYPHIMURIUM, Strain/Indicator: TA1537, Metabolic Activation: HAMSTER, LIVER, S-9, AROCLOR 1254, Method: STANDARD PLATE): inactive; negative
- mutagenic call (Test System: AMES SALMONELLA TYPHIMURIUM, Strain/Indicator: TA1537, Metabolic Activation: HAMSTER, LIVER, S-9, Method: STANDARD PLATE): inactive; negative
- mutagenic call (Test System: AMES SALMONELLA TYPHIMURIUM, Strain/Indicator: TA1537, Metabolic Activation: MOUSE, LIVER, S-9, AROCLOR 1254, Method: STANDARD PLATE): inactive; negative
- mutagenic call (Test System: AMES SALMONELLA TYPHIMURIUM, Strain/Indicator: TA1537, Metabolic Activation: NONE, Method: PREINCUBATION): inactive; negative
- mutagenic call (Test System: AMES SALMONELLA TYPHIMURIUM, Strain/Indicator: TA1537, Metabolic Activation: NONE, Method: STANDARD PLATE): inactive; negative
- mutagenic call (Test System: AMES SALMONELLA TYPHIMURIUM, Strain/Indicator: TA1537, Metabolic Activation: RAT LIVER S-9, PHENOBARBITAL AND BETA-NAPHTHOFLAVONE, Method: PREINCUBATION): inactive; negative
- mutagenic call (Test System: AMES SALMONELLA TYPHIMURIUM, Strain/Indicator: TA1537, Metabolic Activation: RAT, LIVER, S-9, AROCLOR 1254, Method: STANDARD PLATE): inactive; negative
- mutagenic call (Test System: AMES SALMONELLA TYPHIMURIUM, Strain/Indicator: TA1537, Metabolic Activation: RAT, LIVER, S-9, Method: STANDARD PLATE): inactive; negative
- mutagenic call (Test System: AMES SALMONELLA TYPHIMURIUM, Strain/Indicator: TA1538, Metabolic Activation: HAMSTER, LIVER, S-9, AROCLOR 1254, Method: STANDARD PLATE): inactive; negative
- mutagenic call (Test System: AMES SALMONELLA TYPHIMURIUM, Strain/Indicator: TA1538, Metabolic Activation: HAMSTER, LIVER, S-9, Method: STANDARD PLATE): inactive; negative
- mutagenic call (Test System: AMES SALMONELLA TYPHIMURIUM, Strain/Indicator: TA1538, Metabolic Activation: MOUSE, LIVER, S-9, AROCLOR 1254, Method: STANDARD PLATE): inactive; negative
- mutagenic call (Test System: AMES SALMONELLA TYPHIMURIUM, Strain/Indicator: TA1538, Metabolic Activation: MOUSE, LIVER, S-9, Method: STANDARD PLATE): inactive; negative
- mutagenic call (Test System: AMES SALMONELLA TYPHIMURIUM, Strain/Indicator: TA1538, Metabolic Activation: NONE, Method: STANDARD PLATE): inactive; negative
- mutagenic call (Test System: AMES SALMONELLA TYPHIMURIUM, Strain/Indicator: TA1538, Metabolic Activation: RAT, LIVER, S-9, AROCLOR 1254, Method: STANDARD PLATE): inactive; negative
- mutagenic call (Test System: AMES SALMONELLA TYPHIMURIUM, Strain/Indicator: TA1538, Metabolic Activation: RAT, LIVER, S-9, Method: STANDARD PLATE): inactive; negative
- mutagenic call (Test System: AMES SALMONELLA TYPHIMURIUM, Strain/Indicator: TA2638, Metabolic Activation: NONE, Method: STANDARD PLATE): inactive; negative
- mutagenic call (Test System: AMES SALMONELLA TYPHIMURIUM, Strain/Indicator: YG1029, Metabolic Activation: HAMSTER, LIVER, S-9, Method: PREINCUBATION): active; positive
- mutagenic call (Test System: AMES SALMONELLA TYPHIMURIUM, Strain/Indicator: YG1029, Metabolic Activation: NONE, Method: PREINCUBATION): active; positive
- mutagenic call (Test System: AMES SALMONELLA TYPHIMURIUM, Strain/Indicator: YG1029, Metabolic Activation: RAT, SEMINAL VESICLE, MICROSOMES, Method: PREINCUBATION): active; positive
- mutagenic call (Test System: E. COLI, Strain/Indicator: WP2 (PKM101), Metabolic Activation: NONE, Method: STANDARD PLATE): inactive; negative
- mutagenic call (Test System: E. COLI, Strain/Indicator: WP2 UVRA (PKM101), Metabolic Activation: NONE, Method: STANDARD PLATE): active; positive
- mutagenic call (Test System: E. COLI, Strain/Indicator: WP2 UVRA, Metabolic Activation: HAMSTER, LIVER, S-9, AROCLOR 1254, Method: STANDARD PLATE): inactive; negative
- mutagenic call (Test System: E. COLI, Strain/Indicator: WP2 UVRA, Metabolic Activation: HAMSTER, LIVER, S-9, Method: STANDARD PLATE): inactive; negative
- mutagenic call (Test System: E. COLI, Strain/Indicator: WP2 UVRA, Metabolic Activation: MOUSE, LIVER, S-9, AROCLOR 1254, Method: STANDARD PLATE): inactive; negative
- mutagenic call (Test System: E. COLI, Strain/Indicator: WP2 UVRA, Metabolic Activation: MOUSE, LIVER, S-9, Method: STANDARD PLATE): inactive; negative
- mutagenic call (Test System: E. COLI, Strain/Indicator: WP2 UVRA, Metabolic Activation: NONE, Method: STANDARD PLATE): inactive; negative
- mutagenic call (Test System: E. COLI, Strain/Indicator: WP2 UVRA, Metabolic Activation: RAT, LIVER, S-9, AROCLOR 1254, Method: STANDARD PLATE): inactive; negative
- mutagenic call (Test System: E. COLI, Strain/Indicator: WP2 UVRA, Metabolic Activation: RAT, LIVER, S-9, Method: STANDARD PLATE): inactive; negative
- mutagenic call (Test System: E.COLI, Strain/Indicator: WP2UVRA/PKM101, Metabolic Activation: RAT LIVER S-9, PHENOBARBITAL AND BETA-NAPHTHOFLAVONE, Method: PREINCUBATION): inactive; negative
- mutagenic call (Test System: E.COLI, Strain/Indicator: WP2UVRA, Metabolic Activation: NONE, Method: PREINCUBATION): inactive; negative
- mutagenic call (Test System: MOUSE LYMPHOMA, Strain/Indicator: L5178Y (TK+/TK-), Metabolic Activation: NONE, Method: SUSPENSION/PLATE): active; positive
- mutagenic call (Test System: MOUSE LYMPHOMA, Strain/Indicator: L5178Y (TK+/TK-), Metabolic Activation: RAT, LIVER, S-9, AROCLOR 1254, Method: SUSPENSION/PLATE): active; positive
